Numbers after ± are expanded uncertainties.

As a reminder, the mass density is mass per unit of volume.

The conditions of the series: 101.33 kPa, Liquid, Vibrating tube method.

In the case of `Cn1cc[n+](CCO)c1.O=S(=O)([N-]S(=O)(=O)C(F)(F)F)C(F)(F)F`, the mass density (303.15 K) worked out at 1589.4 ± 2.3 kg/m3; the mass density (308.15 K) worked out at 1584.2 ± 2.3 kg/m3; the mass density (313.15 K) is on record as 1578.9 ± 2.3 kg/m3; the mass density (318.15 K) turned out to be 1574.2 ± 2.3 kg/m3; the mass density (323.15 K) came to 1568.7 ± 2.3 kg/m3; the mass density (328.15 K) worked out at 1563.7 ± 2.3 kg/m3. Further, the mass density is given as 1558.7 ± 2.3 kg/m3 (333.15 K); 1553.7 ± 2.2 kg/m3 (338.15 K); 1548.8 ± 2.2 kg/m3 (343.15 K); 1544 ± 2.2 kg/m3 (348.15 K); 1538.6 ± 2.2 kg/m3 (353.15 K).

As to `Cn1cc[n+](CCO)c1.F[P-](F)(F)(F)(F)F` [3-(2-hydroxyethyl)-1-methylimidazolium hexafluorophosphate], the mass density was 1555.6 ± 2.2 kg/m3 (303.15 K); 1550.8 ± 2.2 kg/m3 (308.15 K); 1546 ± 2.2 kg/m3 (313.15 K); 1541.1 ± 2.2 kg/m3 (318.15 K); 1536.4 ± 2.2 kg/m3 (323.15 K); 1531.8 ± 2.2 kg/m3 (328.15 K). Moreover, the mass density by setting is: (333.15 K) 1527.2 ± 2.2 kg/m3; (338.15 K) 1522.6 ± 2.2 kg/m3; (343.15 K) 1518.2 ± 2.2 kg/m3; (348.15 K) 1513.6 ± 2.2 kg/m3; (353.15 K) 1508.7 ± 2.1 kg/m3.

As to `Cn1cc[n+](CCO)c1.O=S(=O)([O-])C(F)(F)F`, the mass density (303.15 K) is given as 1444 ± 2 kg/m3; the mass density (313.15 K) came out at 1436.1 ± 2 kg/m3; the mass density (323.15 K) stood at 1428 ± 2 kg/m3; the mass density (333.15 K) came out at 1420.5 ± 1.9 kg/m3; the mass density (343.15 K) is 1410.8 ± 1.9 kg/m3; the mass density (353.15 K) worked out at 1400.5 ± 1.9 kg/m3.

These data come from the NIST ThermoML archive (doi:10.1016/j.fluid.2010.08.027).
